Measured values taken from US20190159452A1, “ACTIVE COMPOUND COMBINATIONS COMPRISING A (THIO)CARBOXAMIDE DERIVATIVE AND A FUNGICIDAL COMPOUND” (BAYER CROPSCIENCE AKTIENGESELLSCHAFT, priority 2015, published 2019).

Assays:
[1] = system: Pyrenophora teres; assay: in vivo preventive Pyrenophora teres test (barley); conditions: 8 days after inoculation
Text: (§1) A synergistic effect of fungicides is always present when the fungicidal activity of the active compound combinations exceeds the total of the activities of the active compounds when applied individually. The expected activity for a given combination of two active compounds can be calculated as follows (cf. Colby, S. R., “Calculating Synergistic and Antagonistic Responses of Herbicide Combinations”, Weeds 1967, 15, 20-22): • If • X is the efficacy when active compound A is applied at an application rate of m ppm (or g/ha), • Y is the efficacy when active compound B is applied at an application rate of n ppm (or g/ha), • E is the efficacy when the active compounds A and B are applied at application rates of m and n ppm (or g/ha), respectively, and • then
(§2) The degree of efficacy, expressed in % is denoted. 0% means an efficacy which corresponds to that of the control while an efficacy of 100% means that no disease is observed.
(§3) Solvent: 49 parts by weight of N,N-dimethylacetamide
(§4) Emulsifier: 1 part by weight of alkylaryl polyglycol ether
(§5) To produce a suitable preparation of active compound, 1 part by weight of active compound or active compound combination is mixed with the stated amounts of solvent and emulsifier, and the concentrate is diluted with water to the desired concentration.
(§6) To test for preventive activity, young plants are sprayed with the preparation of active compound or active compound combination at the stated rate of application.
After the spray coating has been dried, the plants are sprayed with a spore suspension of Pyrenophora teres. The plants remain for 48 hours in an incubation cabinet at approximately 20° C. and a relative atmospheric humidity of approximately 100%. The plants are placed in the greenhouse at a temperature of approximately 20° C. and a relative atmospheric humidity of approximately 80%.
(§7) The test is evaluated 8 days after the inoculation. 0% means an efficacy which corresponds to that of the untreated control, while an efficacy of 100% means that no disease is observed.

[2] = system: Puccinia triticina; assay: in vivo preventive Puccinia triticina test (wheat); conditions: 8 days after inoculation
Text: as §1, §2, §3, §4, §5, §6
After the spray coating has been dried, the plants are sprayed with a spore suspension of Puccinia triticina. The plants remain for 48 hours in an incubation cabinet at approximately 20° C. and a relative atmospheric humidity of approximately 100%.
The plants are placed in the greenhouse at a temperature of approximately 20° C. and a relative atmospheric humidity of approximately 80%.
as §7

[3] = system: Septoria tritici; assay: in vivo preventive Septoria tritici test (wheat); conditions: 21 days after inoculation
Text: as §1, §2, §3, §4
To produce a suitable preparation of active compound, 1 part by weight of active compound or active compound combination is mixed with the stated amounts of solvent and emulsifier, and the concentrate is diluted with water to the desired concentration. […]
The test is evaluated 21 days after the inoculation. […]

[4] = system: Septoria tritici; assay: in vitro-test Septoria tritici (microtiter plate, growth by extinction at 620 nm); type: cell-based
Text: as §1
Wells of 96-well microtiter plates are filled with 10 μl of a solution of the test compounds or compound combinations in methanol together with the emulsifier alkylaryl polyglycol ether. Thereafter, the solvent is evaporated in a hood. At the next step, into each well 100 μl of liquid potato dextrose medium is given, that has been amended with an appropriate concentration of spores or mycelium suspension of the test fungus.
The resulting concentrations of the test compounds or compound combinations in the microtiter wells are such as 50, 10, 2 and 0.4 ppm. The resulting concentration of the emulsifier in all wells is constantly 300 ppm. With the aid of a photometer the extinction in all wells is measured at the wavelength of 620 nm.
The microtiter plates are then transferred for 3-5 days onto a shaker at 20° C. and 85% relative humidity.
(§8) At the end of the incubation time the growth of the test organisms is measured again photometrically at the wavelength of 620 nm. The difference between the two extinctions values (taken before and after incubation) is proportional to the growth of the test organism. 0% efficacy means, the difference between the two extinction values is equal or even higher than of the untreated control, 100% efficacy means, no growth of the test organism is detected

[5] = system: Blumeria graminis f.sp. hordei; assay: in vivo preventive Blumeria test (barley); conditions: 7 days after inoculation
Text: as §1, §2, §3, §4, §5
To test for preventive activity, young plants are sprayed with the preparation of active compound or active compound combination at the stated rate of application. After the spray coating has been dried, the plants are dusted with spores of Blumeria graminis f.sp. hordei.
The plants are placed in the greenhouse at a temperature of approximately 18° C. and a relative atmospheric humidity of approximately 80% to promote the development of mildew pustules.
The test is evaluated 7 days after the inoculation. 0% means an efficacy which corresponds to that of the untreated control, while an efficacy of 100% means that no disease is observed.

[6] = system: Leptosphaeria nodorum; assay: in vitro-test Leptosphaeria nodorum (microtiter plate, growth by extinction at 620 nm); type: cell-based; conditions: 2.5 ppm a.i., 3-5 days incubation
Text: A synergistic effect of fungicides is always present when the fungicidal activity of the active compound combinations exceeds the total of the activities of the active compounds when applied individually. The expected activity for a given combination of two active compounds can be calculated as follows (cf. Colby, S. R., “Calculating Synergistic and Antagonistic Responses of Herbicide Combinations”, Weeds 1967, 15, 20-22): • If • X is the efficacy when active compound A is applied at an application rate of m ppm (or g/ha), • Y is the efficacy when active compound B is applied at an application rate of n ppm (or g/ha), • E is the efficacy when the active compounds A and B are applied at application rates of m and n ppm (or g/ha), respectively, and • then […]
The resulting concentrations of the test compounds or compound combinations in the microtiter wells are such as 50, 10, 2 and 0.4 ppm. […] With the aid of a photometer the extinction in all wells is measured at the wavelength of 620 nm. […]
as §8, with “The difference between the two extinctions values (taken before and after incubation) is proportional to the growth of the test organism.” left out

[7] = log P by HPLC on a reversed-phase column (C18), EEC Directive 79/831 Annex V.A8; type: physicochemical; conditions: for chromatographic logP: reversed-phase C18 HPLC column, printed after the preparation step, method not restated
Experimental: In table 1, the log P values were determined in accordance with EEC Directive 79/831 Annex V.A8 by HPLC (High Performance Liquid Chromatography) on a reversed-phase column (C18), using the method described below:
Temperature: 40° C.; Mobile phases: 0.1% aqueous formic acid and acetonitrile; linear gradient from 10% acetonitrile to 90% acetonitrile.
Calibration was carried out using unbranched alkan-2-ones (comprising 3 to 16 carbon atoms) with known log P values (determination of the log P values by the retention times using linear interpolation between two successive alkanones). lambda-max-values were determined using UV-spectra from 200 nm to 400 nm and the peak values of the chromatographic signals.

[8] = Table B1, 30 ppm a.i., wheat, preventive
[9] = 0.1 ppm a.i., 3-5 days incubation

CC(C)c1ccc(Cl)cc1CN(C(=O)c1c(C(F)F)nn(C)c1F)C1CC1 [Compound A5, N-(5-chloro-2-isopropylbenzyl)-N-cyclopropyl-3-(difluoromethyl)-5-fluoro-1-methyl-1H-pyrazole-4-carboxamide]
Efficacy in % found ([1]; 5 ppm a.i.): 44% | Efficacy in % found ([1]; 10 ppm a.i., barley, preventive): 67% | Efficacy in % found [2, 8]: 75% | Efficacy in % found ([2]; Table B2, 5 ppm a.i.): 30% | Efficacy in % found ([2]; Table B2, 10 ppm a.i.): 40% | Efficacy in % found ([2]; Table B2, 20 ppm a.i., wheat, preventive): 70% | Efficacy in % found ([3]; 10 ppm a.i.): 29% | Efficacy in % found [4, 9]: 65% | Efficacy in % found ([5]; 5 ppm a.i.): 0% | Efficacy in % found ([5]; 10 ppm a.i.): 20% | Efficacy in % found ([5]; 20 ppm a.i., barley, preventive): 40% | Efficacy in % found [6]: 36%

CC(C)C(O)(Cn1cncn1)c1ccc(Oc2ccc(Cl)cc2)cc1C(F)(F)F (centres unmarked) [(B2), 2-[4-(4-chlorophenoxy)-2-(trifluoromethyl)phenyl]-3-methyl-1-(1H-1,2,4-triazol-1-yl)butan-2-ol]
Efficacy in % found ([1]; 50 ppm a.i.): 22% | Efficacy in % found ([1]; 60 ppm a.i.): 44% | Efficacy in % found ([1]; 100 ppm a.i.): 56% | Efficacy in % found ([2]; Table B2, 30 ppm a.i.): 0% | Efficacy in % found ([2]; Table B2, 50 ppm a.i.): 10% | Efficacy in % found ([2]; Table B2, 100 ppm a.i.): 30% | Efficacy in % found ([2]; Table B2, 200 ppm a.i.): 40% | Efficacy in % found [4, 9]: 0% | Efficacy in % found ([4]; 0.3 ppm a.i.): 6% | Efficacy in % found ([4]; 0.6 ppm a.i.): 0% | Efficacy in % found ([5]; 30 ppm a.i.): 0% | Efficacy in % found ([5]; 50 ppm a.i.): 30% | Efficacy in % found ([5]; 60 ppm a.i.): 60% | Efficacy in % found ([5]; 100 ppm a.i.): 70% | Efficacy in % found [6]: 1%

N-cyclopropyl-3-(difluoromethyl)-5-fluoro-N-(2-isopropylbenzyl)-1-methyl-1H-pyrazole-4-carbothio-amide [Compound A20]
logP [7]: 4.36

Cc1ccc(S(=O)(=O)n2cc(F)c(=N)n(C)c2=O)cc1 [(B1), 5-fluoro-4-imino-3-methyl-1-[(4-methylphenyl)sulfonyl]-3,4-dihydropyrimidin-2(1H)-one]
Efficacy in % found [2, 8]: 0% | chromatographic logP [7]: 1.26 | Efficacy in % found ([3]; 30 ppm a.i.): 0%

Cc1ccc(S(=O)(=O)n2cc(F)c(N)nc2=O)cc1 [5-fluoro-4-imino-1-(p-tolylsulfonyl)pyrimidin-2-one]
chromatographic logP [7]: 1.45
